Assay: Human HepG2 cell viability assay in 384 well format
Type: toxicity, cell-based
Design: dose 125 nL, time 70.5 hour; cytotoxicity at 70.5 h: concentration not given beside the values
Settings: HepG2 cells, read-out: Inhibition

Compound	cytotoxicity at 70.5 h [%]
CCNC(=O)N1CC(c2nc(Cc3ccccc3)no2)C1	-5.59
Cc1nnsc1C(=O)N1CC(c2nc3ccccc3[nH]2)C1	-14.1
Cc1cc(C)n(CCN2CCN(C(=O)c3ccc(Br)o3)CC2)n1	-4.56
O=C(Nc1ccc2c(c1)OCO2)N1CCN(CCn2cccn2)CC1	-11.3
N#Cc1ccc(C(=O)N2CC(c3nc(-c4ncccn4)no3)C2)cc1	-13.2
CCS(=O)(=O)N1CC(c2nc(-c3ccsc3)no2)C1	-3.37
COc1ccc(C(=O)NCc2ccco2)nn1	-6.23
O=C(NCC(Cc1cccc(F)c1)N1CCCC1=O)c1ccc[nH]c1=O (stereo not drawn)	-16.4
O=C(NCC(Cc1cccc(F)c1)N1CCCC1=O)C1CCCC1 (stereo not drawn)	-13.2
CCS(=O)(=O)NCC(Cc1cccc(F)c1)N1CCNC1=O (stereo not drawn)	6.34
COc1cc(CN2CCC(COCc3ccccc3)CC2)cc(OC)c1	19.3
O=S(=O)(c1ccccc1Cl)N1CCC2(CC1)OCCS2	-9.74
Cc1c(Cl)cccc1S(=O)(=O)N1CCC2(CC1)OCCS2	-1.11
O=C(NC1CC1)C1CN(C(=O)c2cnccn2)C1	-3.98
O=C(NCC(F)(F)F)C1CN(C(=O)c2cnccn2)C1	-9.42
CC(=O)c1cccc(NC(=O)C2CN(S(=O)(=O)C3CC3)C2)c1	-2.67
O=C(N1CCOCC1CO)C1(c2cccs2)CCCC1 (stereo not drawn)	-4.96
c1ccc2c(c1)CCN(c1nc(N3CCOCC3)c3nn[nH]c3n1)C2	-0.0594
O=C(NCc1cccs1)C1CCN(c2cc(-n3ccnc3)ncn2)CC1	-0.911
O=S(=O)(NCC1CCN(c2cnccn2)CC1)c1cccs1	5.13
COc1ccc(C(=O)NCCN2CCC(c3cccs3)CC2)cc1OC	0.337
CCSc1ccccc1C(=O)NCCN1CCC(c2cccs2)CC1	4.38
CSCC(C)(O)CNS(=O)(=O)c1cccc(C)c1 (stereo not drawn)	6.12
CSCCC(C)(O)CNC(=O)c1ccsc1 (stereo not drawn)	0.568

Compound	cytotoxicity at 70.5 h [%]
CSCCC(C)(O)CNS(=O)(=O)Cc1cccc(C)c1 (stereo not drawn)	-16.9
O=C(COc1ccccc1F)NCCC(O)c1ccco1 (stereo not drawn)	-3.87
O=C(NCCC(O)c1ccco1)c1ccccc1Br (stereo not drawn)	-2.47
COC(=O)c1sccc1S(=O)(=O)NCCC(O)c1ccco1 (stereo not drawn)	-8.35
O=C(NCCC(O)c1cccs1)c1ccco1 (stereo not drawn)	-9.55
O=S(=O)(NCCC(O)c1cccs1)c1ccccc1 (stereo not drawn)	-5.21
COc1ccc(S(=O)(=O)NCCC(O)c2cccs2)c(C)c1 (stereo not drawn)	-8.98
CC(=O)Nc1nc2c(s1)CN(CC(=O)Nc1ccc(C)c(Cl)c1)CC2	-14.4
O=C(Nc1nc2c(s1)CN(S(=O)(=O)C1CC1)CC2)c1cccc(Cl)c1	8.23
O=C(Nc1ccc2c(c1)OCO2)N1CCN(CCn2ccnc2)CC1	-6.54
CCc1ccc(S(=O)(=O)N2CCN(CCn3ccnc3)CC2)cc1	-0.658
COC(=O)c1ccc(C(=O)NCC2(O)CCOCC2)cc1	33.7
O=C(COc1ccccc1F)NCC(O)(c1ccccc1)C1CC1 (stereo not drawn)	-13.8
O=C(NCC1(O)CCOc2ccccc21)Nc1ccccc1 (stereo not drawn)	1.09
O=C(NCC1(O)CCOc2ccccc21)Nc1ccc2c(c1)OCO2 (stereo not drawn)	0.267
COc1ccc(CNC(=O)NCc2cc(C)oc2C)cc1	-10.8
Cc1cccc(C(C(=O)N(C)Cc2ccco2)N(C)C)c1 (stereo not drawn)	2.2
CCc1ncc(CN2CCC3(CCCN(CC4CCC4)C3)C2)cn1 (stereo not drawn)	-6.02
CN(CCn1ccc2ccccc21)C(=O)Cc1n[nH]c(=O)[nH]1	1.76
Cc1cnn(CCCNC(=O)CCC2CCCCN2C)c1 (stereo not drawn)	-13.1
COc1ccc(OC)c(CNCc2ccnc(N3CCCCC3)c2)c1	-8.18
COc1cc(CNCc2ccnc(N3CCCCC3)c2)cc(OC)c1	4.65
CCS(=O)(=O)N1CCC(NC(=O)c2cc(C(C)C)ccc2O)CC1	1.02
CC(C)CCN(C)Cc1nc2c(cnn2C)c(=O)[nH]1	-5.91

Compound	cytotoxicity at 70.5 h [%]
Cc1ccsc1CN(Cc1nc2c(cnn2C)c(=O)[nH]1)C(C)C	2.45
Cc1cccc(OCCC(=O)NCC2CN(C)CCO2)c1C (stereo not drawn)	-5.5
CN1CCOC(CNC(=O)CCCOc2cccc(F)c2)C1 (stereo not drawn)	0.774
CC(C)c1nn(C)c(N2CCOCC2)c1CNCCC(=O)N(C)C	22.2
CCc1nnc2n1CCN(C(C(=O)NC1CC1)c1ccccc1)C2 (stereo not drawn)	-7.08
Cc1nnc2n1CCN(C(C(=O)N1CCCCC1)c1ccccc1)C2 (stereo not drawn)	-1.38
Cc1ccc(-c2nc(CNC3CCc4ncnn4C3)cs2)cc1 (stereo not drawn)	2.93
Cc1nc2n(n1)CC(NCc1csc(-c3ccsc3)n1)CC2 (stereo not drawn)	-8.64
Cc1c(F)cc(C(=O)O)cc1S(=O)(=O)Nc1ccccc1	3.77
O=C(CCOc1ccccc1)N1CCCC(n2cncn2)C1 (stereo not drawn)	2.02
Cc1ccc(CC(=O)N2CCc3nnc(N(C)C)cc3C2)s1	-4.06
O=C(NC1CC1)C(c1ccccc1)N1CCn2c(nnc2C2CC2)C1 (stereo not drawn)	1.07
COCc1nc(C(=O)NS(=O)(=O)c2ccc(Cl)cc2F)cs1	-3.46
NC(=O)c1ccc(OCC(=O)NS(=O)(=O)c2ccc3c(c2)CCC3)cc1	-2.69
CC(C)(O)CN1CCN(C(=O)c2ccc(Cl)c3cccnc23)CC1	26
O=C(Nc1cccc(F)c1)C1CCCN1c1nccs1 (stereo not drawn)	1.52
N#Cc1cccc(NC(=O)C2CCCN2c2nccs2)c1 (stereo not drawn)	-2.24
CC1CN(C(=O)c2cccc(OCc3cscn3)c2)CCO1 (stereo not drawn)	-1.66
CC(=O)N1CCN(C(=O)c2cccc(OCc3cscn3)c2)CC1	0.43
CCC1CN(C(=O)c2cccc(OCc3cscn3)c2)CCO1 (stereo not drawn)	-5.57
O=C(NCCCn1ccnc1)N1CCCC1c1ccsc1 (stereo not drawn)	24.9
COc1ccc(NC(=O)N(CC2CCOC2)C2CC2)cn1 (stereo not drawn)	-6.27
CCN(CC1CCOC1)C(=O)Nc1ccc(N2CCCCC2)nc1 (stereo not drawn)	-1.47
NC(=O)C1CCCN(C(=O)c2cccc(OCc3cscn3)c2)C1 (stereo not drawn)	-9.59

Compound	cytotoxicity at 70.5 h [%]
Cc1cc(CN(C)C(=O)NC2CCN(C3CC3)CC2)no1	-3
Cc1noc(C)c1CN(C)C(=O)NC1CCCN(S(C)(=O)=O)C1 (stereo not drawn)	0.729
Cc1ccc(C(=O)N2CCCN(Cc3cccs3)CC2)c(=O)[nH]1	-0.458
O=C(c1cccnc1O)N1CCN(CCc2cccs2)CC1	-6.9
CCOC(=O)CCNC(=O)c1nc(OCC)ccc1Cl	-3.61
Cc1n[nH]c(=O)c(C(=O)N2CCN(CCc3cccs3)CC2)c1C	-2.36
CCN(CC1CCOC1)C(=O)Nc1ccc(OCC(F)(F)F)nc1 (stereo not drawn)	-2.33
Cn1cnc2c1CCN(Cc1csc(-c3ccccc3F)n1)C2	-3.29
CC(O)CN1CCN(C(=O)c2cc(Cl)cc3cccnc23)CC1 (stereo not drawn)	-5.43
CC(C)(O)CN1CCN(C(=O)c2cccc3cccnc23)CC1	-2.87
CCc1[nH]ncc1C(=O)N1CCCN(Cc2nccn2C(C)C)CC1	0.199
CCOc1ccc(Cl)c(C(=O)NCCc2ncc[nH]2)n1	-3.13
Cc1nc(CN2CCCN(C(=O)c3cccnc3O)CC2)cs1	-4.77
CCC(O)CN1CCN(C(=O)c2cc(Cl)cc3cccnc23)CC1 (stereo not drawn)	18.2
NC(=O)c1cc(C2CCCN(CCOCC3CC3)C2)n[nH]1 (stereo not drawn)	-1.45
Cc1nc(C2CCCN2CCCS(=O)(=O)c2ccccc2)no1 (stereo not drawn)	-3.41
O=C(Nc1cccc(C2SCCS2)c1)C1CCCN1c1nccs1 (stereo not drawn)	0.117
COc1ccc(C2CCCN2C(=O)NCCn2ccnc2)cc1 (stereo not drawn)	1.98
COc1ccc(C2CCCN2C(=O)NCCCn2ccnc2)cc1 (stereo not drawn)	16.1
Cc1noc(C)c1C(=O)N1CCCN(Cc2nccn2C(C)C)CC1	0.0993
CC(=O)N(C)CC(=O)NCC1CCN(c2cc(Cl)ccc2C)C1 (stereo not drawn)	2.11
CCc1nc(C2CCCN2CCS(=O)(=O)c2ccccc2)no1 (stereo not drawn)	-1.81
Cc1cc(C(=O)N2CCCN(Cc3cnn(C)c3)CC2)no1	-3.47
O=C(Cc1cn2ccsc2n1)N1CCCC(n2ccnc2)C1 (stereo not drawn)	-2.03

Compound	cytotoxicity at 70.5 h [%]
CN(C)c1cc(C(=O)N2CCCCCC2)ccn1	-8.97
CN(C)c1ccc(NC(=O)NCC2CCOC2)cn1 (stereo not drawn)	-9.11
O=C(c1ccc(OCC2CC2)nc1)N1CCCC(n2cccn2)C1 (stereo not drawn)	-7.07
Cn1ccc(CN2CCC(NC(=O)C3CCCCC3)CC2)cc1=O	-3.14
c1ccc(COc2cccc(CNC3CCc4ncnn4C3)c2)cc1 (stereo not drawn)	19.6
Cc1cnn(C2CCCN(C(=O)c3ccc(OCC4CC4)nc3)C2)c1 (stereo not drawn)	-3.84
O=C(c1ccc(N2CCCC2)nc1)N1CCCC(n2cncn2)C1 (stereo not drawn)	-9
O=C(Nc1nccs1)NC1CCN(CC2CCCC2)CC1	-13.1
c1cnnc(N2CCCC2CNCc2nc(-c3cccs3)no2)c1 (stereo not drawn)	-15.1
c1ccc(OCc2cscn2)c(CNC2CCc3ncnn3C2)c1 (stereo not drawn)	-4.78
Cc1cnn(CC2CCCN2Cc2cn3ccsc3n2)c1 (stereo not drawn)	-9.34
c1cnn(CC2CCCN2Cc2cn3ccsc3n2)c1 (stereo not drawn)	6.04
CC(C)CNC(=O)NC(=O)C(C)Nc1cccc(CN2CCOC2=O)c1 (stereo not drawn)	-10.8
COc1cc(CNCc2ccnc(N3CCCC3)c2)cc(OC)c1	1.37
CC1CCN(C(=O)CN2CC(c3nc(C4CC4)no3)C2)CC1	23.6
Cc1noc(C2CN(Cc3ccc4c(c3)CCO4)C2)n1	-11.7
c1cnc(-c2noc(C3CN(Cc4ccc5c(c4)CCO5)C3)n2)nc1	-2.95
c1csc(-c2noc(C3CN(Cc4ccc5c(c4)CCO5)C3)n2)c1	-9.73
O=C(CN1CC(c2nc(-c3cccs3)no2)C1)NCC1CCCO1 (stereo not drawn)	-2.94
COc1cc(COCC2CCN(Cc3cccnc3)CC2)cc(OC)c1	-1.2
CN(CCO)CC1COCCN1C(=O)C1CCCCC1 (stereo not drawn)	-14.2
CN(CCO)CC1COCCN1C(=O)CCC1CCCC1 (stereo not drawn)	47.6
